Assay results taken from publication PMC9150124, “Design of a Potent, Selective, and Brain-Penetrant Inhibitor of Wnt-Deactivating Enzyme Notum by Optimization of a Crystallographic Fragment Hit” (Journal of Medicinal Chemistry, 2022).

Assays:
Assay in all cases: SelectScreen kinase profiling, SSBK LanthaScreen Binding SP Technology
[1] = biological target: kinase named in conditions (Homo sapiens, UniProt P22607, K650M); conditions: FGFR3 K650M, 10 μM
[2] = biological target: kinase named in conditions (Homo sapiens, UniProt O94768); conditions: STK17B (DRAK2), 10 μM
[3] = biological target: kinase named in conditions (Homo sapiens, UniProt O00311); conditions: CDC7/DBF4, 10 μM
[4] = biological target: kinase named in conditions (Homo sapiens, UniProt Q8NFD2); conditions: ANKK1, 10 μM
[5] = biological target: kinase named in conditions (Homo sapiens, UniProt O75460); conditions: ERN1, 10 μM
[6] = biological target: kinase named in conditions (Homo sapiens, UniProt P10721, T670I/V559D); conditions: KIT V559D T670I, 10 μM
[7] = biological target: kinase named in conditions (Homo sapiens, UniProt Q9UF33); conditions: EPHA6, 10 μM
[8] = biological target: kinase named in conditions (Homo sapiens, UniProt Q32MK0); conditions: MLCK (MLCK2), 10 μM
[9] = biological target: kinase named in conditions (Homo sapiens, UniProt Q9UM73, R1275Q); conditions: ALK R1275Q, 10 μM
[10] = biological target: kinase named in conditions (Homo sapiens, UniProt O00444); conditions: PLK4, 10 μM
[11] = biological target: kinase named in conditions (Homo sapiens, UniProt Q2M2I8); conditions: AAK1, 10 μM
[12] = biological target: kinase named in conditions (Homo sapiens, UniProt P15056); conditions: BRAF, 10 μM
[13] = biological target: kinase named in conditions (Homo sapiens, UniProt Q9UM73, L1196M); conditions: ALK L1196M, 10 μM
[14] = biological target: kinase named in conditions (Homo sapiens, UniProt Q9UKE5); conditions: TNIK, 10 μM
[15] = biological target: kinase named in conditions (Homo sapiens, UniProt Q9UM73, F1174L); conditions: ALK F1174L, 10 μM
[16] = biological target: kinase named in conditions (Homo sapiens, UniProt Q15746); conditions: MYLK (MLCK), 10 μM
[17] = biological target: kinase named in conditions (Homo sapiens, UniProt P36897); conditions: TGFBR1 (ALK5), 10 μM
[18] = biological target: kinase named in conditions (Homo sapiens, UniProt P57059); conditions: SIK1, 10 μM
[19] = biological target: kinase named in conditions (Homo sapiens, UniProt P37023); conditions: ACVRL1 (ALK1), 10 μM
[20] = biological target: kinase named in conditions (Homo sapiens, UniProt Q14004); conditions: read-out: % Inhibition mean
[21] = biological target: kinase named in conditions (Homo sapiens, UniProt Q00535); conditions: CDK5 (Inactive), 10 μM
[22] = biological target: kinase named in conditions (Homo sapiens, UniProt O75385); conditions: ULK1, 10 μM
[23] = biological target: kinase named in conditions (Homo sapiens, UniProt O00238); conditions: BMPR1B (ALK6), 10 μM
[24] = tested on: kinase named in conditions
[25] = biological target: kinase named in conditions (Homo sapiens, UniProt Q02750); conditions: MAP2K1 (MEK1), 10 μM
[26] = biological target: kinase named in conditions (Homo sapiens, UniProt Q6PHR2); conditions: ULK3, 10 μM
[27] = biological target: kinase named in conditions (Homo sapiens, UniProt Q7L7X3); conditions: TAOK1, 10 μM
[28] = biological target: kinase named in conditions (Homo sapiens, UniProt Q92630); conditions: DYRK2, 10 μM
[29] = biological target: kinase named in conditions (Homo sapiens, UniProt Q96S53); conditions: TESK2, 10 μM
[30] = biological target: kinase named in conditions (Homo sapiens, UniProt P22694); conditions: PRKACB (PRKAC beta), 10 μM
[31] = biological target: kinase named in conditions (Homo sapiens, UniProt Q99683); conditions: MAP3K5 (ASK1), 10 μM
[32] = biological target: kinase named in conditions (Homo sapiens, UniProt P33981); conditions: TTK, 10 μM
[33] = biological target: kinase named in conditions (Homo sapiens, UniProt P30291); conditions: WEE1, 10 μM
[34] = biological target: kinase named in conditions (Homo sapiens, UniProt Q8IWQ3); conditions: BRSK2, 10 μM

Sequence of kinase named in conditions (Homo sapiens, UniProt P22607, K650M) (P22607 23-806 K650M): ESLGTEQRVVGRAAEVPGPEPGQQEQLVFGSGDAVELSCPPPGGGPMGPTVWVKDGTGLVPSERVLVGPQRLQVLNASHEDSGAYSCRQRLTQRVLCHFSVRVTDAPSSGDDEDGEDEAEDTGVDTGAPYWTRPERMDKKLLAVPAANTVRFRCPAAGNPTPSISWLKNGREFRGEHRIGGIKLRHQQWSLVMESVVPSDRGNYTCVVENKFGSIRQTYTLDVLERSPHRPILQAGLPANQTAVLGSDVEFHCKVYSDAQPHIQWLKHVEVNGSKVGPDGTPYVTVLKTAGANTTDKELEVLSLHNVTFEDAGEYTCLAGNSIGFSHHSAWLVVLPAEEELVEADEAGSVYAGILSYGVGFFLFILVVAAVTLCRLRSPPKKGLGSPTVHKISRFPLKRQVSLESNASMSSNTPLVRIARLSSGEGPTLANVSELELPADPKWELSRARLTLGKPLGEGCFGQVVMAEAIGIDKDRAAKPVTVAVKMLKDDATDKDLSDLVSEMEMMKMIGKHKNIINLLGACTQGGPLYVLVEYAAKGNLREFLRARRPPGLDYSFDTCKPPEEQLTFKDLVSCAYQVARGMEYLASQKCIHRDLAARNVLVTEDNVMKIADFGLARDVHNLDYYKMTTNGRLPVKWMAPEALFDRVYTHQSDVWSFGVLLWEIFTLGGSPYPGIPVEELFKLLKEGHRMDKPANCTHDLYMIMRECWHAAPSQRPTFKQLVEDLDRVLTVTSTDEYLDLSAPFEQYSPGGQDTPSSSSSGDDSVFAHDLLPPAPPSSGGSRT
Sequence of kinase named in conditions (Homo sapiens, UniProt O00238) (O00238 14-502): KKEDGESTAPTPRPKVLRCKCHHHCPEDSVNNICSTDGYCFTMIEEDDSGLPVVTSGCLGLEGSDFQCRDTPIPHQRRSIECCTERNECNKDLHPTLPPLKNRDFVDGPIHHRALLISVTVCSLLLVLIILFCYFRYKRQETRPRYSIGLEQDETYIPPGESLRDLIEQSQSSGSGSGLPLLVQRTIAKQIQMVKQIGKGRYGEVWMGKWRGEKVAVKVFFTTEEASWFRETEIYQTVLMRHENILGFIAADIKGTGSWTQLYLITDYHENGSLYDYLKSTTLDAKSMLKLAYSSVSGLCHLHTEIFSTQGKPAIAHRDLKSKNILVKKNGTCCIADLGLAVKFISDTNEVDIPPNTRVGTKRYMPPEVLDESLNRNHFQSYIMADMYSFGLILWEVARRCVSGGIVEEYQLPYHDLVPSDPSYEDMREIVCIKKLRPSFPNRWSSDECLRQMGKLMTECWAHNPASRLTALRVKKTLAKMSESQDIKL
Sequence of kinase named in conditions (Homo sapiens, UniProt O94768) (O94768 whole entry): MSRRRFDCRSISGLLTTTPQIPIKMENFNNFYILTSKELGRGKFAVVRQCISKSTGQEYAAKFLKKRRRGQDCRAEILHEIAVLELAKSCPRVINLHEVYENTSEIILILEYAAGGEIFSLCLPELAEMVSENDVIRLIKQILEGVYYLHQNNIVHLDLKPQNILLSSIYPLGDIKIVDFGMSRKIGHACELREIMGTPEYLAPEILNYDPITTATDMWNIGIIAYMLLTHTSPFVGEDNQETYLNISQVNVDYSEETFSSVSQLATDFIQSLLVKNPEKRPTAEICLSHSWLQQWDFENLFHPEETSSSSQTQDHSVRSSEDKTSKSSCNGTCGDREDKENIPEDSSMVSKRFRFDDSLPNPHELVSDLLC
Sequence of kinase named in conditions (Homo sapiens, UniProt Q99683) (Q99683 whole entry): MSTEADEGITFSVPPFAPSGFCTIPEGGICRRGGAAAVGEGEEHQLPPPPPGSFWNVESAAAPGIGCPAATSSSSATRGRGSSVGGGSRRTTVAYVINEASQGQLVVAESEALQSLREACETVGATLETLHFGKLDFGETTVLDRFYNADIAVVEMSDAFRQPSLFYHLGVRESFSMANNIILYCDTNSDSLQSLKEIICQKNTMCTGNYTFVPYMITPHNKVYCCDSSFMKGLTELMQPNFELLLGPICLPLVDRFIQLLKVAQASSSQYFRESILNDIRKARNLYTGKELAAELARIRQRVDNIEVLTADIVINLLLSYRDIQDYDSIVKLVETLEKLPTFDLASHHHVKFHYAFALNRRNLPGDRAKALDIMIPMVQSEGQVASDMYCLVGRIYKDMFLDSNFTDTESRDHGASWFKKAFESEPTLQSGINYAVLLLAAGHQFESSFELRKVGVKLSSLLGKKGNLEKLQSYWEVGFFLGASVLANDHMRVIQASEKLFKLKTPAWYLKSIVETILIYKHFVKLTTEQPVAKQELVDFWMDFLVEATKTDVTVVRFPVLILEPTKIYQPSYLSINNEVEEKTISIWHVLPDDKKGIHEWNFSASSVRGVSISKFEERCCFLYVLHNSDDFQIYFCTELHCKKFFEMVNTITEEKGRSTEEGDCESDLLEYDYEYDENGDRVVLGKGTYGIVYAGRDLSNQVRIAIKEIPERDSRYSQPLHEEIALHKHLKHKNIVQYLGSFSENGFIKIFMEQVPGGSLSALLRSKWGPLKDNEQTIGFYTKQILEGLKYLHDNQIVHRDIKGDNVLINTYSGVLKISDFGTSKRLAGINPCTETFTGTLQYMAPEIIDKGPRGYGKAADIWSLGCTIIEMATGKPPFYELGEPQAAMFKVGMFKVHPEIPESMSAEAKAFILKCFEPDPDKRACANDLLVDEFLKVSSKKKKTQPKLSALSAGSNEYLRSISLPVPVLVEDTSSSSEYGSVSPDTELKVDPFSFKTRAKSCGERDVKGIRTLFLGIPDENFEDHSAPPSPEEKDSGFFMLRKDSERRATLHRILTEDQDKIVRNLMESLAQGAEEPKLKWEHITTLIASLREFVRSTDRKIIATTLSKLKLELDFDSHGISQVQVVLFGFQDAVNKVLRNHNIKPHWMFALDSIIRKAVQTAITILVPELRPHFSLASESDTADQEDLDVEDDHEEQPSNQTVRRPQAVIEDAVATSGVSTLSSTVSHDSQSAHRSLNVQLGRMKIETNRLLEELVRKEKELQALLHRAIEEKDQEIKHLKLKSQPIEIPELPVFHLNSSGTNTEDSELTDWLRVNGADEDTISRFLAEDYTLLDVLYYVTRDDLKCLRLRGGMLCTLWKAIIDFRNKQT
Sequence of kinase named in conditions (Homo sapiens, UniProt Q02750) (Q02750 whole entry): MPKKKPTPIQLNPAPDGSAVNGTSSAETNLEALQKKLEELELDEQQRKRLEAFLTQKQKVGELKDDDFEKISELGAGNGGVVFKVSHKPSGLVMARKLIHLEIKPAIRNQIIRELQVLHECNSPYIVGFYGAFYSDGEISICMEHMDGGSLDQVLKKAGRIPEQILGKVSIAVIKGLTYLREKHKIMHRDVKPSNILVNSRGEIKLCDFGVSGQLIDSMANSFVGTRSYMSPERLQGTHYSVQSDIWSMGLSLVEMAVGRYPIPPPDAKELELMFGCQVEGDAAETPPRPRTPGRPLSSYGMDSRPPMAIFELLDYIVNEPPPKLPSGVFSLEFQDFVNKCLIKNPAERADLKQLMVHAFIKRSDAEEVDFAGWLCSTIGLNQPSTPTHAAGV
Sequence of kinase named in conditions (Homo sapiens, UniProt P33981) (P33981 whole entry): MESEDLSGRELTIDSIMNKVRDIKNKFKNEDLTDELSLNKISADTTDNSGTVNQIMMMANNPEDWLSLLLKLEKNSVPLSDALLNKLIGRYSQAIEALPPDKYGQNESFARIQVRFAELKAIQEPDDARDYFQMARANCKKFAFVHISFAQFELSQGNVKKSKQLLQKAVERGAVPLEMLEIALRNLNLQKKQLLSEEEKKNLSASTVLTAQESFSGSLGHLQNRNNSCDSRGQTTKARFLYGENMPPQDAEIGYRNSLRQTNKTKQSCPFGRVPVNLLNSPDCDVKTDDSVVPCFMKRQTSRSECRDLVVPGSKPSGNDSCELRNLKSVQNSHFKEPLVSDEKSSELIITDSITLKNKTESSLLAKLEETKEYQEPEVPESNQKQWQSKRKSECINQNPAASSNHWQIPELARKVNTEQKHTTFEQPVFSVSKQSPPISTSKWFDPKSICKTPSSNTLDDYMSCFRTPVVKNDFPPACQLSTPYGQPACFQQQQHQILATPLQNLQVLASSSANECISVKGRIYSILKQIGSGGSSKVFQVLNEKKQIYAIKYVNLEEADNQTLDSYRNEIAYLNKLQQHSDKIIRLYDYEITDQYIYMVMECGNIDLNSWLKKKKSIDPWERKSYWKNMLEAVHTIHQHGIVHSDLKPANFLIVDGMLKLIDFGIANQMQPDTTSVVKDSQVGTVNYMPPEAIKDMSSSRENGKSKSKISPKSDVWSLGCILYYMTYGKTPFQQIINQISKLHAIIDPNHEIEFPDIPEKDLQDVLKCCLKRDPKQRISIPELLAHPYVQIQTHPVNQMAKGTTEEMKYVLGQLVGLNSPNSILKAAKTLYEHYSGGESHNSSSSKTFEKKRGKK
Sequence of kinase named in conditions (Homo sapiens, UniProt P37023) (P37023 22-503): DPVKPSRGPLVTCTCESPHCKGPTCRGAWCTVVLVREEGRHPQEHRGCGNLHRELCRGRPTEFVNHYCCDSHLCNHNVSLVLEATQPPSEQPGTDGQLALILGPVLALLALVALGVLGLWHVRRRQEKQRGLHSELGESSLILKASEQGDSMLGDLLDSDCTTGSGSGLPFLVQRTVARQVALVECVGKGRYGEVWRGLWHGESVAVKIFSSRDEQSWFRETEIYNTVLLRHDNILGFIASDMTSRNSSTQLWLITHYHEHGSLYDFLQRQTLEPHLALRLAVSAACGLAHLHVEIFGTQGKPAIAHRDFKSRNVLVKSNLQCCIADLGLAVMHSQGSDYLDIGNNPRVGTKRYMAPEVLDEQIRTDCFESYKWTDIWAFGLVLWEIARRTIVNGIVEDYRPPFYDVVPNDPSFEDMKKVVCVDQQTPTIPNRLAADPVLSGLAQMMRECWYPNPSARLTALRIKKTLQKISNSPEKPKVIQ
Sequence of kinase named in conditions (Homo sapiens, UniProt Q00535) (Q00535 whole entry): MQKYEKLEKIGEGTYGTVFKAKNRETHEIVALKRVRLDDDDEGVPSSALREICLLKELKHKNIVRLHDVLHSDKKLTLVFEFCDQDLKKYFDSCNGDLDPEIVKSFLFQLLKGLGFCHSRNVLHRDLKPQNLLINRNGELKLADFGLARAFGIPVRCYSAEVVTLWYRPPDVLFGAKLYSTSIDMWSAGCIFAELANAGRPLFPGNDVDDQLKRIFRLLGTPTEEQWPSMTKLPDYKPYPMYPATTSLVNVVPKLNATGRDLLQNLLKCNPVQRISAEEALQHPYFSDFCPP

**Q.** How did the inhibition at 10 µM [1] turn out when `FC(F)(F)c1c(Cl)ccc(-n2ccnn2)c1Cl` [8l, 1-(2,4-Dichloro-3-(trifluoromethyl)phenyl)-1H-1,2,3-triazole] was run?
**A.** 2%

**Q.** And the inhibition at 10 µM [2]?
**A.** 14%

**Q.** What about the inhibition at 10 µM [3] of the same compound?
**A.** -15%

**Q.** What about the inhibition at 10 µM [4] of the same compound?
**A.** -4%

**Q.** And the inhibition at 10 µM [5]?
**A.** -4%

**Q.** What about the inhibition at 10 µM [6] of the same compound?
**A.** -3%

**Q.** And the inhibition at 10 µM [7]?
**A.** 1%

**Q.** What about the inhibition at 10 µM [8] of the same compound?
**A.** -3%

**Q.** What about the inhibition at 10 µM [9] of the same compound?
**A.** -2%

**Q.** What about the inhibition at 10 µM [10] of the same compound?
**A.** -1%

**Q.** What about the inhibition at 10 µM [11] of the same compound?
**A.** 1%

**Q.** And the inhibition at 10 µM [12]?
**A.** 7%

**Q.** And the inhibition at 10 µM [13]?
**A.** -3%

**Q.** What about the inhibition at 10 µM [14] of the same compound?
**A.** 0%

**Q.** What about the inhibition at 10 µM [15] of the same compound?
**A.** 1%

**Q.** What about the inhibition at 10 µM [16] of the same compound?
**A.** 3%

**Q.** What about the inhibition at 10 µM [17] of the same compound?
**A.** -1%

**Q.** And the inhibition at 10 µM [18]?
**A.** -3%

**Q.** What about the inhibition at 10 µM [19] of the same compound?
**A.** 12%

**Q.** What about the inhibition at 10 µM [20] of the same compound?
**A.** 38%

**Q.** What about the inhibition at 10 µM [21] of the same compound?
**A.** 1%

**Q.** What about the inhibition at 10 µM [22] of the same compound?
**A.** -2%

**Q.** What about the inhibition at 10 µM [23] of the same compound?
**A.** 0%

**Q.** What about the “% Inhibition mean” value ([24]; ALK T1151_L1152insT, 10 μM) of the same compound?
**A.** 3%

**Q.** What about the “% Inhibition mean” value ([24]; EGFR (ErbB1) d746-750, 10 μM) of the same compound?
**A.** 2%

**Q.** What about the “% Inhibition mean” value ([24]; EGFR (ErbB1) d747-749 A750P, 10 μM) of the same compound?
**A.** -6%

**Q.** What about the “% Inhibition mean” value ([24]; FLT3 ITD, 10 μM) of the same compound?
**A.** -15%

**Q.** What about the inhibition at 10 µM [25] of the same compound?
**A.** 26%

**Q.** And the inhibition at 10 µM [26]?
**A.** -4%

**Q.** What about the inhibition at 10 µM [27] of the same compound?
**A.** 0%

**Q.** What about the inhibition at 10 µM [28] of the same compound?
**A.** -1%

**Q.** What about the inhibition at 10 µM [29] of the same compound?
**A.** 6%

**Q.** What about the inhibition at 10 µM [30] of the same compound?
**A.** 1%

**Q.** And the inhibition at 10 µM [31]?
**A.** 17%

**Q.** What about the inhibition at 10 µM [32] of the same compound?
**A.** 5%

**Q.** What about the inhibition at 10 µM [33] of the same compound?
**A.** 9%

**Q.** What about the inhibition at 10 µM [34] of the same compound?
**A.** 4%
